This assay concerns the target T1, KCNT1 (KNa1.1, Slack) (Homo sapiens, UniProt Q5JUK3).
T1 construct: expressed in transfected cells; host or cells: HEK-TREX (tetracycline-inducible HEK cell line)
T1 sequence (Q5JUK3 1-1230): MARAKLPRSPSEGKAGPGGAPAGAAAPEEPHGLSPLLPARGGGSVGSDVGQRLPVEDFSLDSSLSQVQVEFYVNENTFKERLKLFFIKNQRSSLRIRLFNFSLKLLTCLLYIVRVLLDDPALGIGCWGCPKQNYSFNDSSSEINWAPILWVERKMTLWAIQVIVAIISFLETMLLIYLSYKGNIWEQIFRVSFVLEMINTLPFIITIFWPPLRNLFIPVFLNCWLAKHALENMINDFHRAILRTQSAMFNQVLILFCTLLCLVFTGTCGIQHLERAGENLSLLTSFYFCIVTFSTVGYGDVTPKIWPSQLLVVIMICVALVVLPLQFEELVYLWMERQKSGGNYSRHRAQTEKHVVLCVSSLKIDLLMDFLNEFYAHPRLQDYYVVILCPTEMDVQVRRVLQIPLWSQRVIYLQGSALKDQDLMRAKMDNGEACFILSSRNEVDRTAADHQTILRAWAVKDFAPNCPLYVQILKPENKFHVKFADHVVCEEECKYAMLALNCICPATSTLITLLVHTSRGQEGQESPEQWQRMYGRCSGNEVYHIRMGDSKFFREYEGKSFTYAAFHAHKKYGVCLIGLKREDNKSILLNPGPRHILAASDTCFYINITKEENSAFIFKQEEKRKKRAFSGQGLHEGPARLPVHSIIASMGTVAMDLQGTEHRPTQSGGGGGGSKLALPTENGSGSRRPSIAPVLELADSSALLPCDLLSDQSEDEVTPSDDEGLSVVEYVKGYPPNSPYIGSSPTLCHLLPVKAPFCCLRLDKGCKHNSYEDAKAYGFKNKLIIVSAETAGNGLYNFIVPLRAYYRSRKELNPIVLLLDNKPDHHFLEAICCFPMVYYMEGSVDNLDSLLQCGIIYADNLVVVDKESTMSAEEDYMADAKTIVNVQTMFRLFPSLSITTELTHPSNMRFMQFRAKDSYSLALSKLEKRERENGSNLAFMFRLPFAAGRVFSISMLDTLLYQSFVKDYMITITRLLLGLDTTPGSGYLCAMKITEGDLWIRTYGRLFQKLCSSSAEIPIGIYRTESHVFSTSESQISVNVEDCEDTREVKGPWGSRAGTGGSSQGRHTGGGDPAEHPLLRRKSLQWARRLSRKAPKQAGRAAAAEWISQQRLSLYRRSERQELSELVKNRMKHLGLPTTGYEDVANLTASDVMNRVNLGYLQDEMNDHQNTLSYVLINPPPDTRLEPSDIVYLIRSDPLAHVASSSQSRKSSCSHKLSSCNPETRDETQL
The assay is described as follows: KCNT1 patch clamp assay (SyncroPatch 384PE, HEK-TREX inducible cell line). Format: cell-based. To be noted: wild-type KCNT1, HEK-TREX cells, automated perforated patch clamp, step to 0 mV, room temperature; read-out: KCNT1-WT IC50. The protocol: Inhibition of KCNT1 (KNa1.1, Slack) was evaluated using a tetracycline inducible cell line (HEK-TREX). Currents were recorded using the SyncroPatch 384PE automated, patch clamp system. Pulse generation and data collection were performed with PatchController384 V1.3.0 and DataController384 V1.2.1 (Nanion Technologies). The access resistance and apparent membrane capacitance were estimated using built-in protocols. Current were recorded in perforated patch mode (10 μM escin) from a population of cells. The cells were lifted, triturated, and resuspended at 800,000 cells/ml. The cells were allowed to recover in the cell hotel prior to experimentation. Currents were recorded at room temperature. The external solution contained the following (in mM): NaCl 105, NMDG 40, KCl 4, MgCl2 1, CaCl2) 5 and HEPES 10 (pH=7.4, Osmolarity ˜300 mOsm). The extracellular solution was used as the wash, reference and compound delivery solution. The internal solution contained the following (in mM): NaCl 70, KF 70, KCl 10, EGTA 5, HEPES 5 and Escin 0.01 (pH=7.2, Osmolarity ˜295 mOsm). Escin is made at a 5 mM stock in water, aliquoted, and stored at −20° C. The compound plate was created at 2× concentrated in the extracellular solution. The compound was diluted to 1:2 when added to the recording well. The amount of DMSO in the extracellular solution was held constant at the level used for the highest tested concentration. A holding potential of −80 mV with a 100 ms step to 0 mV was used. Mean current was measured during the step to 0 mV. […] The average mean current from 3 sweeps was calculated and the % inhibition of each compound was calculated. The % Inhibition as a function of the compound concentration was fit with a Hill equation to derive IC50, slope, min and max parameters. If KCNT1 inhibition was less than 50% at the highest tested concentration or if an IC50 could not be calculated, then a percent inhibition was reported in place of the IC50.
In this table, “A” indicates IC50 of less than or equal to 1 μM; “B” indicates inhibition of between 1 μM to 20 μM; and “C” indicates inhibition of greater than or equal to 20 μM.
Turning to `CC(C)c1cc(C(=O)N[C@@H](C)c2nc(-c3ccnc(C4CC4)c3)no2)n(C)n1` [Compound 1, (S)—N-(1-(3-(2-cyclopropylpyridin-4-yl)-1,2,4-oxadiazol-5-yl)ethyl)-3-isopropyl-1-methyl-1H-pyrazole-5-carboxamide], the IC50 is no more than 1000 nM.

As to `C[C@H](NC(=O)c1ccnn1C1CCC1)c1nc(-c2ccnc(C3CCC3)c2)no1` [Compound 7, (S)-1-cyclobutyl-N-(1-(3-(2-cyclobutylpyridin-4-yl)-1,2,4-oxadiazol-5-yl)ethyl)-1H-pyrazole-5-carboxamide], the IC50 was in the range of 1000 to 20000 nM.

With `C[C@H](NC(=O)c1cc(C(F)F)nn1C)c1nc(-c2ccnc(C3CCC3)c2)no1` [Compound 8, (S)—N-(1-(3-(2-cyclobutylpyridin-4-yl)-1,2,4-oxadiazol-5-yl)ethyl)-3-(difluoromethyl)-1-methyl-1H-pyrazole-5-carboxamide], the IC50 was no more than 1000 nM.

For `CCn1nccc1C(=O)N[C@@H](C)c1nc(-c2ccnc(C3CC3)c2)no1` [Compound 5, (S)—N-(1-(3-(2-cyclopropylpyridin-4-yl)-1,2,4-oxadiazol-5-yl)ethyl)-1-ethyl-1H-pyrazole-5-carboxamide], the IC50 is no more than 1000 nM.

For the compound `C[C@H](NC(=O)c1cc(C(C)(C)C)nn1C)c1nc(-c2ccnc(C3CC3)c2)no1` [Compound 4, (S)-3-(tert-butyl)-N-(1-(3-(2-cyclopropylpyridin-4-yl)-1,2,4-oxadiazol-5-yl)ethyl)-1-methyl-1H-pyrazole-5-carboxamide], the IC50 is no more than 1000 nM.

`C[C@H](NC(=O)c1ccnn1C(C)(C)C)c1nc(-c2ccnc(C3CC3)c2)no1` [Compound 6, (S)-1-(tert-butyl)-N-(1-(3-(2-cyclopropylpyridin-4-yl)-1,2,4-oxadiazol-5-yl)ethyl)-1H-pyrazole-5-carboxamide]: the IC50 was no more than 1000 nM.

For `CC(C)n1nccc1C(=O)N[C@@H](C)c1nc(-c2ccnc(C3CC3)c2)no1` [Compound 2, (S)—N-(1-(3-(2-cyclopropylpyridin-4-yl)-1,2,4-oxadiazol-5-yl)ethyl)-1-isopropyl-1H-pyrazole-5-carboxamide], the IC50 was no more than 1000 nM.

Consider `C[C@H](NC(=O)c1cc(C2CC2)nn1C)c1nc(-c2ccnc(C3CC3)c2)no1` [Compound 3, (S)-3-cyclopropyl-N-(1-(3-(2-cyclopropylpyridin-4-yl)-1,2,4-oxadiazol-5-yl)ethyl)-1-methyl-1H-pyrazole-5-carboxamide], for which the IC50 was no more than 1000 nM.

Broadly, the IC50 is the point on the concentration scale where inhibition reaches its midpoint.

Source of the values: patent US11773088B2, “KCNT1 inhibitors and methods of use” (Praxis Precision Medicines, Inc., priority 2020, dated 2023).
